Source: ChEMBL document CHEMBL5653615 (J Biol Chem, 2013)

What was measured:
[1] = target: T1, Aurora kinase C (Homo sapiens) (UniProt Q9UQB9); assay: Inhibition of human Aurora C at 500 nM by HotSpot assay relative to control
T1 sequence (whole entry): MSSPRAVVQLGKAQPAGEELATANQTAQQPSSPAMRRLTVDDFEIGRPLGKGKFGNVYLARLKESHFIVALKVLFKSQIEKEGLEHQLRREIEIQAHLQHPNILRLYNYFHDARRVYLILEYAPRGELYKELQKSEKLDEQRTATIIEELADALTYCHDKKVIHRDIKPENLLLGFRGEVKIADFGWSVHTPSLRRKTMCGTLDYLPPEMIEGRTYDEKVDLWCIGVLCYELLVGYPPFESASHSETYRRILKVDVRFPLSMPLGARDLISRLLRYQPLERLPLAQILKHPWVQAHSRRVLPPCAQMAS

[2] = target: Death-associated protein kinase 1 (Homo sapiens) (UniProt P53355); assay: Inhibition of human DAPK1 at 500 nM by HotSpot assay relative to control
Death-associated protein kinase 1 (Homo sapiens), sequence (P53355 whole entry, looked up): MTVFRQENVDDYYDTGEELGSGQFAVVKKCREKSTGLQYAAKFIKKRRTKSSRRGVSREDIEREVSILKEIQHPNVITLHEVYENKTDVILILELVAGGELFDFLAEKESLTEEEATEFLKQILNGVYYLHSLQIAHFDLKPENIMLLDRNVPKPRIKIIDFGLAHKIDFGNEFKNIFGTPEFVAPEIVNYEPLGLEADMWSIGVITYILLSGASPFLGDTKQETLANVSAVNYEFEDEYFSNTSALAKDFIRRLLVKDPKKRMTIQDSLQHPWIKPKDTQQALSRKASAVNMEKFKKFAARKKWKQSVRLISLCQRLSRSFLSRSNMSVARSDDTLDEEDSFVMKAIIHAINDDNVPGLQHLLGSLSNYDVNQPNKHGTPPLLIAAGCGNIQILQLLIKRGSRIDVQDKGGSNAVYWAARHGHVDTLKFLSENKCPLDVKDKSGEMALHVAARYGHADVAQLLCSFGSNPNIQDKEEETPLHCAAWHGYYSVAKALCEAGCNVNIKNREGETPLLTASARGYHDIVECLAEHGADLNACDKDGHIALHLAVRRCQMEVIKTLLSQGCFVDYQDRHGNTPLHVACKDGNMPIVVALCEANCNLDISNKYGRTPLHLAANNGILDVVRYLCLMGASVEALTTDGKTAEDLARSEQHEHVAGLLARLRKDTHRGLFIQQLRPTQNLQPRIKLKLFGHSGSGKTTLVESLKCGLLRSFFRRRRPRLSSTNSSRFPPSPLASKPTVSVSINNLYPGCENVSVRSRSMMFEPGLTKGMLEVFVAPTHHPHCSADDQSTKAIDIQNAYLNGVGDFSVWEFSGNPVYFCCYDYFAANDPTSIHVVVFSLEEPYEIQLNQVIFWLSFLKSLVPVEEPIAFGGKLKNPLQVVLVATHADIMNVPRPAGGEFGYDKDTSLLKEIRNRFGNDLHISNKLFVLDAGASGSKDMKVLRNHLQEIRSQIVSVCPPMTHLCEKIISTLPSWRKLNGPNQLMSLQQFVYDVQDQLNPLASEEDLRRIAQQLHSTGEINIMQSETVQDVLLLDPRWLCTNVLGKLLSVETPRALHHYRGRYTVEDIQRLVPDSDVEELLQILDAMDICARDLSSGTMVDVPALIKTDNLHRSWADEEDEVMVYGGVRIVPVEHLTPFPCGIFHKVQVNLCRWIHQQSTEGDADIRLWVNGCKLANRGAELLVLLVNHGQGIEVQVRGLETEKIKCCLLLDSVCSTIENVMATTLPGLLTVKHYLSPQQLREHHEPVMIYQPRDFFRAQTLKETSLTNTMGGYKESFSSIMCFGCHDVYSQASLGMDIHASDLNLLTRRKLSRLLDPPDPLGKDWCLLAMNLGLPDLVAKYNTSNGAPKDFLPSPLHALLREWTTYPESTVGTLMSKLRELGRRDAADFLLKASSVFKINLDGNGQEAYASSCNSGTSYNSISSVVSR

[3] = target: T2, MAP/microtubule affinity-regulating kinase 4 (Homo sapiens) (UniProt Q96L34); assay: Inhibition of human MARK4 at 500 nM by HotSpot assay relative to control
T2 sequence (whole entry): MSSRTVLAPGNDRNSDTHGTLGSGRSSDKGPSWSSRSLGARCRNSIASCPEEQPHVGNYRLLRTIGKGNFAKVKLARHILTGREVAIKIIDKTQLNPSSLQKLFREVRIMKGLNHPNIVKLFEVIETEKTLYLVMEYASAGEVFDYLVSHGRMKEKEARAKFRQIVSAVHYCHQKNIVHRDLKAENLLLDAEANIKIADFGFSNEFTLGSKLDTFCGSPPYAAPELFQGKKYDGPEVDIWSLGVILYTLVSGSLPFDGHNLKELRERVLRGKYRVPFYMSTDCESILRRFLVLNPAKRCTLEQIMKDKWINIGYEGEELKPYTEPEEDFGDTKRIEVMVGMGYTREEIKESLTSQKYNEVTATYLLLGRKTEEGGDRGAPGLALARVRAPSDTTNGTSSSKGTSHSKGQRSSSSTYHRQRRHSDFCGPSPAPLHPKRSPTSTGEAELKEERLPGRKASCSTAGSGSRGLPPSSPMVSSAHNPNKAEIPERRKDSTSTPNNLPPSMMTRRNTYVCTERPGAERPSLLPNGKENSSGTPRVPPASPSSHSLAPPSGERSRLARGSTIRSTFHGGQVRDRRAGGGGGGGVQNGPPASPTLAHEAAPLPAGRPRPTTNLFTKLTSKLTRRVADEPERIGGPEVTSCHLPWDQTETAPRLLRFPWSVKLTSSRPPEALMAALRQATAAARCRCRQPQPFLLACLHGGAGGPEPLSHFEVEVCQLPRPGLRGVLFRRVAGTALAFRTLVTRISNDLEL

[4] = target: T3, Serine/threonine-protein kinase Nek3 (Homo sapiens) (UniProt P51956); assay: Inhibition of human NEK3 at 500 nM by HotSpot assay relative to control
T3 sequence (whole entry): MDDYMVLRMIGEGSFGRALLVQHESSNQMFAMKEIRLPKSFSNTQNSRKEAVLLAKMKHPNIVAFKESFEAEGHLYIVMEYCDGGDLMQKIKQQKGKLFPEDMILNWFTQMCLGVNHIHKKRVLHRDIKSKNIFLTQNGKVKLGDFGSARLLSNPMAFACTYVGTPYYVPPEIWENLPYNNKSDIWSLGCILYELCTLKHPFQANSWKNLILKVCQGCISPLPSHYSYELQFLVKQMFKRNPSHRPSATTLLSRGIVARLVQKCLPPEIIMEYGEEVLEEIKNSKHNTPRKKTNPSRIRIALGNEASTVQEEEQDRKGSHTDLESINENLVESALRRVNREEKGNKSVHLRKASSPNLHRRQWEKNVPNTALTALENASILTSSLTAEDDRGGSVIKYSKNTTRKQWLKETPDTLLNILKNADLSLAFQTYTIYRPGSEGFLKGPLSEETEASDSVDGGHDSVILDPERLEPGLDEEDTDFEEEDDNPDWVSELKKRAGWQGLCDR

[5] = target: Proto-oncogene tyrosine-protein kinase receptor Ret (Homo sapiens) (UniProt P07949); assay: Inhibition of human RET at 500 nM by HotSpot assay relative to control
Proto-oncogene tyrosine-protein kinase receptor Ret (Homo sapiens), sequence (P07949 whole entry): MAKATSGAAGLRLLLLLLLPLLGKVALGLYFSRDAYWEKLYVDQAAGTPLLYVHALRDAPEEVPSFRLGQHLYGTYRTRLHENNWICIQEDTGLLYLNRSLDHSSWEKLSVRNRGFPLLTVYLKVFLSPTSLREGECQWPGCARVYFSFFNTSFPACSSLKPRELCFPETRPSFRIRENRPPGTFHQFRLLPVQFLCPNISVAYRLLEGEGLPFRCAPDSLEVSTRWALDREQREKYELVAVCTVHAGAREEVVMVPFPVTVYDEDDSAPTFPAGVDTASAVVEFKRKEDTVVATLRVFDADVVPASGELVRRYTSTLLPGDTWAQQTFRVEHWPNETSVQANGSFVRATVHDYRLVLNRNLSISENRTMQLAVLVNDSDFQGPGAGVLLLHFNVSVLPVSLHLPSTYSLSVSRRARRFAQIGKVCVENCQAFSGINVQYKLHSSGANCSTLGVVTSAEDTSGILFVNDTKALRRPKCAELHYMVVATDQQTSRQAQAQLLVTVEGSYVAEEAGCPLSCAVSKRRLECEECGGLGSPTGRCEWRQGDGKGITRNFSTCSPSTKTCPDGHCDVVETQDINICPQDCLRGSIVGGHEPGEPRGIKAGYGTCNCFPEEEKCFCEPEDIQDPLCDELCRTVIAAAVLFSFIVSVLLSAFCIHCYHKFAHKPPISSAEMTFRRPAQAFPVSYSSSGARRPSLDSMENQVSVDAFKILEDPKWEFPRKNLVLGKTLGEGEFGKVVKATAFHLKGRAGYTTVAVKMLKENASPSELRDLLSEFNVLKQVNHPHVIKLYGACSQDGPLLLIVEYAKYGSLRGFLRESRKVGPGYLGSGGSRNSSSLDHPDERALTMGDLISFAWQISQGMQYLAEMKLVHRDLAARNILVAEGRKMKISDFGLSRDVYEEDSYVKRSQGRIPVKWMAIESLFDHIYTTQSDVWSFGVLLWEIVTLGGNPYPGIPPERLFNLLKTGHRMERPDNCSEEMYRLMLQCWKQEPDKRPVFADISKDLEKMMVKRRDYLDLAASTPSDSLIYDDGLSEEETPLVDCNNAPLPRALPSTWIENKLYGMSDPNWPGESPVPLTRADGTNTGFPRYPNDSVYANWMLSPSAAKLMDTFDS

[6] = target: Tyrosine-protein kinase Srms (Homo sapiens) (UniProt Q9H3Y6); assay: Inhibition of human SRMS at 500 nM by HotSpot assay relative to control
Tyrosine-protein kinase Srms (Homo sapiens), sequence (Q9H3Y6 whole entry): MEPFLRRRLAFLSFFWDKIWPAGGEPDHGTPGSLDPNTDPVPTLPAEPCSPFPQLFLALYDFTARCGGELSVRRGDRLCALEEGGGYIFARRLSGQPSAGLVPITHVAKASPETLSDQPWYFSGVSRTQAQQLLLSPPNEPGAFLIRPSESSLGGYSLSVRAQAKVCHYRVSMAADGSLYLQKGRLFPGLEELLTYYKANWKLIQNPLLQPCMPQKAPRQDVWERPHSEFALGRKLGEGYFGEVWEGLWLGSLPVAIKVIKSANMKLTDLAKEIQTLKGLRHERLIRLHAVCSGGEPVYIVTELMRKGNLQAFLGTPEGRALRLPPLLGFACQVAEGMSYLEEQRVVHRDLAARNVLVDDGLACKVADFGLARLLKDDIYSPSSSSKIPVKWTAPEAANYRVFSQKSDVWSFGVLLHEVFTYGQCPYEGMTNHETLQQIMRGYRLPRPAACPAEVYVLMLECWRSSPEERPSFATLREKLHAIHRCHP

[7] = target: T4, Serine/threonine-protein kinase TAO1 (Homo sapiens) (UniProt Q7L7X3); assay: Inhibition of human TAOK1 at 500 nM by HotSpot assay relative to control
T4 sequence (whole entry): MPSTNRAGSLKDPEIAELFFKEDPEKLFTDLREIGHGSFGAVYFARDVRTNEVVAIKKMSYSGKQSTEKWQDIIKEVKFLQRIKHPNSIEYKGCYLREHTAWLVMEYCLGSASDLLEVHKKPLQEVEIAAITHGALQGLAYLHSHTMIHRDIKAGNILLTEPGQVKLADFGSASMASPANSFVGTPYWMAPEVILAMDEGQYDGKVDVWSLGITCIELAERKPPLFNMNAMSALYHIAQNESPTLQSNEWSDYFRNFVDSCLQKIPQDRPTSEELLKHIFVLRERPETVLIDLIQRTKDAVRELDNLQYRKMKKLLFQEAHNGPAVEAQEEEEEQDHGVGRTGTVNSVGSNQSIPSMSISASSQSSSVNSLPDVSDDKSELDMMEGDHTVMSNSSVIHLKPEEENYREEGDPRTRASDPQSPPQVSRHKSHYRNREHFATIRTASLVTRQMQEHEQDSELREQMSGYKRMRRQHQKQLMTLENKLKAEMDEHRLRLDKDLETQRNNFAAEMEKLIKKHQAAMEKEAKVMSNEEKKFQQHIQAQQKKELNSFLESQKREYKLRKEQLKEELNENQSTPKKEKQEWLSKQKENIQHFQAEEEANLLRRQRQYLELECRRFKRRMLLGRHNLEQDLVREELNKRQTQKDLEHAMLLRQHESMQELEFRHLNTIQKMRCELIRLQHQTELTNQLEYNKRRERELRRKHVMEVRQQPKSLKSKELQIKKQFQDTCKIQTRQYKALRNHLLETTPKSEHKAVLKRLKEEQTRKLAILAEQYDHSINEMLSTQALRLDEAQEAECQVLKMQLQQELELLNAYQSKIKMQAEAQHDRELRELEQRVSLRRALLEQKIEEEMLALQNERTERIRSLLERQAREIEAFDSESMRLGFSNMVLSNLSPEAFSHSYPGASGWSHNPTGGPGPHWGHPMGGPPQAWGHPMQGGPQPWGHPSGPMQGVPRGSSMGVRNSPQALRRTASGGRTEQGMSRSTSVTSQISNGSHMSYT

[8] = target: Tyrosine-protein kinase Yes (Homo sapiens) (UniProt P07947); assay: Inhibition of human YES1 at 500 nM by HotSpot assay relative to control
Tyrosine-protein kinase Yes (Homo sapiens), sequence (P07947 2-543 limits assumed): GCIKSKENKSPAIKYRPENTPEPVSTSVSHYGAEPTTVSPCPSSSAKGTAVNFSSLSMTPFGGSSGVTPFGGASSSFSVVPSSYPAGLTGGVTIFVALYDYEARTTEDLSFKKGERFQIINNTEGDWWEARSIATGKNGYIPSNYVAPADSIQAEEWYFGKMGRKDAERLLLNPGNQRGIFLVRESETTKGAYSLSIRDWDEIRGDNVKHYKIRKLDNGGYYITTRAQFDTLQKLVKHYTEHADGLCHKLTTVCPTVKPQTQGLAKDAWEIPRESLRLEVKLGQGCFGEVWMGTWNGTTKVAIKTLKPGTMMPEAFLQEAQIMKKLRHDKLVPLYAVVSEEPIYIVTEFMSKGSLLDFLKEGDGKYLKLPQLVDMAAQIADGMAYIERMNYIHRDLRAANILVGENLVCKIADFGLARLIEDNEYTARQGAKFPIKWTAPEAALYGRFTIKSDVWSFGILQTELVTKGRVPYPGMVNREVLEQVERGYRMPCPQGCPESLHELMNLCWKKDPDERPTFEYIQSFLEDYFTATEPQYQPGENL

Structure (SMILES) | inhibition [1] [%] | inhibition [2] [%] | inhibition [3] [%] | inhibition [4] [%] | inhibition [5] [%] | inhibition [6] [%] | inhibition [7] [%] | inhibition [8] [%]
Oc1n[nH]c2nnc(-c3c(-c4ccccc4)nn4ccccc34)cc12 | 2.04 | 6.45 | -3.17 | 12.8 | -3.97 | 0.83 | 1.61 | 4.49
Nc1n[nH]c2nnc(-c3c(-c4ccccc4)nn4ccccc34)cc12 | 3.59 | 4.15 | -4.7 | 17.3 | 6.33 | 7.04 | 4.2 | 8.91
